# Results published in publication PMC6943437, “Coupling the Antimalarial Cell Penetrating Peptide TP10 to Classical Antimalarial Drugs Primaquine and Chloroquine Produces Strongly Hemolytic Conjugates” (Molecules, 2019).
# “And” between values parts separate entries of the source, which are not always exact repeats. Equal entries are not always repeated. *1 amine or outer side, *2 acyl side, *3 side chain or, on linkers, in order; H or OH if unused. Where a SMILES comes first, the peptide text is derived from it. Where no end group is shown, it is not given here. The star is where a group is joined. NH(CH2)4NH(7-Cl-4-quinolyl) = Clc1ccc2c(NCCCCN*)ccnc2c1; Suc = O=C(CCC(=O)[*:2])[*:1]
# System: P. falciparum W2
# Type: cell-based
# Conditions: P. falciparum W2 (CQ-resistant), 48 h, n = 3
# Experimental: All conjugates and their respective parent CPP (Table 1), were screened in vitro for their antiplasmodial activity, using the CQ-resistant P. falciparum W2 strain. The primaquine analogue to 5a, i.e., conjugate 3 where the CPP is TP10, PQ-C4-TP10 (3a), was also included in the study for comparison.
# Synchronized ring-stage P. falciparum parasites (W2 strain) were incubated with test compounds for 48 h in Roswell Park Memorial Institute (RPMI) 1640 medium containing 10% human serum or 0.5% Albumax serum substitute. Parasites were then fixed with 1% formaldehyde in phosphate-buffered saline (PBS), pH 7.4, for […] at RT and labeled with YOYO-1 (1 nM; molecular probes) in 0.1% Triton X-100 in PBS. Parasitemias were determined by flow cytometry, from dot plots (forward scatter versus fluorescence). For 50% inhibitory concentration (IC50) determinations, dose-response studies were performed, with the values normalized to percent control activity, and IC50s were calculated using GraphPad Prism, with data fitted by nonlinear regression.
row,Compound,IC50
1,CC[C@H](C)[C@H](NC(=O)[C@H](CCCCN)NC(=O)[C@H](CCCCN)NC(=O)[C@H](C)NC(=O)[C@H](CC(C)C)NC(=O)[C@H](C)NC(=O)[C@H](C)NC(=O)[C@H](CC(C)C)NC(=O)[C@H](C)NC(=O)[C@H](CCCCN)NC(=O)[C@H](CC(C)C)NC(=O)[C@H](CC(N)=O)NC(=O)[C@@H](NC(=O)[C@H](CCCCN)NC(=O)CNC(=O)[C@H](CC(C)C)NC(=O)[C@H](CC(C)C)NC(=O)[C@H](Cc1ccc(O)cc1)NC(=O)CNC(=O)[C@H](C)NC(=O)[C@H](CO)NC(=O)[C@H](CC(N)=O)NC(=O)[C@H](CC(C)C)NC(=O)[C@@H](NC(=O)[C@H](Cc1c[nH]c2ccccc12)NC(=O)CNC(=O)CCC(=O)NCCCCNc1ccnc2cc(Cl)ccc12)[C@@H](C)O)[C@@H](C)CC)C(=O)N[C@@H](CC(C)C)C(N)=O [5b],5.2 µM
2,CC[C@H](C)[C@H](NC(=O)[C@H](CCCCN)NC(=O)[C@@H](NC(=O)[C@H](CCC(=O)O)NC(=O)[C@H](CCCNC(=N)N)NC(=O)[C@H](CCCCN)NC(=O)[C@@H](NC(=O)[C@H](CCCCN)NC(=O)[C@H](CCCCN)NC(=O)[C@H](CCCCN)NC(=O)[C@H](CCCCN)NC(=O)[C@@H](NC(=O)CCC(=O)NCCCCNc1ccnc2cc(Cl)ccc12)C(C)C)[C@@H](C)CC)[C@@H](C)CC)C(N)=O [5c] ({NH(CH2)4NH(7-Cl-4-quinolyl)-Suc}-VKKKKIKREIKI-NH2),> 10 µM
3,CC[C@H](C)[C@H](NC(=O)[C@H](CC(C)C)NC(=O)[C@H](CCCNC(=N)N)NC(=O)[C@H](CCCCN)NC(=O)[C@H](CCC(N)=O)NC(=O)[C@H](CCCNC(=N)N)NC(=O)[C@@H](NC(=O)[C@H](CC(C)C)NC(=O)[C@H](CCCNC(=N)N)NC(=O)[C@H](CCCCN)NC(=O)[C@H](CCC(N)=O)NC(=O)[C@H](CCCNC(=N)N)NC(=O)[C@@H](NC(=O)[C@H](CC(C)C)NC(=O)[C@H](CCCNC(=N)N)NC(=O)[C@H](CCCCN)NC(=O)[C@H](CCC(N)=O)NC(=O)[C@H](CCCNC(=N)N)NC(=O)CCC(=O)NCCCCNc1ccnc2cc(Cl)ccc12)[C@@H](C)CC)[C@@H](C)CC)C(N)=O [5d] ({NH(CH2)4NH(7-Cl-4-quinolyl)-Suc}-RQKRLIRQKRLIRQKRLI-NH2),> 10 µM
4,CC[C@H](C)[C@H](NC(=O)[C@H](CCCNC(=N)N)NC(=O)[C@@H](NC(=O)[C@H](C)NC(=O)[C@@H](NC(=O)[C@@H](NC(=O)[C@H](CC(C)C)NC(=O)[C@H](CCCNC(=N)N)NC(=O)[C@@H](NC(=O)CCC(=O)NCCCCNc1ccnc2cc(Cl)ccc12)C(C)C)[C@@H](C)CC)C(C)C)C(C)C)C(=O)N[C@@H](Cc1c[nH]c2ccccc12)C(=O)N[C@@H](CCCNC(=N)N)C(=O)N[C@@H](CCCNC(=N)N)C(N)=O [5e] ({NH(CH2)4NH(7-Cl-4-quinolyl)-Suc}-VRLIVAVRIWRR-NH2),> 10 µM
5,N=C(N)NCCC[C@H](NC(=O)CNC(=O)CCC(=O)NCCCCNc1ccnc2cc(Cl)ccc12)C(=O)N[C@@H](CCCCN)C(=O)N[C@@H](CCCCN)C(=O)N[C@@H](CCCNC(=N)N)C(=O)N[C@@H](CCCNC(=N)N)C(=O)N[C@@H](CCC(N)=O)C(=O)N[C@@H](CCCNC(=N)N)C(=O)N[C@@H](CCCNC(=N)N)C(=O)N[C@@H](CCCNC(=N)N)C(=O)N1CCC[C@H]1C(=O)N1CCC[C@H]1C(=O)N[C@@H](CCC(N)=O)C(N)=O [5f],> 10 µM
6,CC[C@H](C)[C@H](NC(=O)[C@H](CC(C)C)NC(=O)[C@H](Cc1ccccc1)NC(=O)[C@H](Cc1ccccc1)NC(=O)CCC(=O)NCCCCNc1ccnc2cc(Cl)ccc12)C(=O)N1CCC[C@H]1C(=O)N[C@@H](CCCCN)C(=O)NCC(=O)NCC(=O)N[C@@H](CCCNC(=N)N)C(=O)N[C@@H](CCCCN)C(=O)N[C@@H](CCCCN)C(=O)N[C@@H](CCCNC(=N)N)C(=O)N[C@@H](CCCNC(=N)N)C(=O)N[C@@H](CCC(N)=O)C(=O)N[C@@H](CCCNC(=N)N)C(=O)N[C@@H](CCCNC(=N)N)C(=O)N[C@@H](CCCNC(=N)N)C(=O)N1CCC[C@H]1C(=O)N1CCC[C@H]1C(=O)N[C@@H](CCC(N)=O)C(N)=O [5g] ({NH(CH2)4NH(7-Cl-4-quinolyl)-Suc}-FFLIPKGGRKKRRQRRRPPQ-NH2),8.5 µM
7,N=C(N)NCCC[C@H](NC(=O)[C@H](CCCNC(=N)N)NC(=O)[C@H](CCCNC(=N)N)NC(=O)[C@H](CCCNC(=N)N)NC(=O)[C@H](CCCNC(=N)N)NC(=O)[C@H](CCCNC(=N)N)NC(=O)[C@H](CCCNC(=N)N)NC(=O)[C@H](CCCNC(=N)N)NC(=O)[C@H](CCCNC(=N)N)NC(=O)CCC(=O)NCCCCNc1ccnc2cc(Cl)ccc12)C(N)=O [5h],> 10 µM
8,CC[C@H](C)[C@H](NC(=O)[C@H](CCCCN)NC(=O)[C@@H](NC(=O)[C@H](CCC(N)=O)NC(=O)[C@H](CCCNC(=N)N)NC(=O)CCC(=O)NCCCCNc1ccnc2cc(Cl)ccc12)[C@@H](C)CC)C(=O)N[C@@H](Cc1c[nH]c2ccccc12)C(=O)N[C@@H](Cc1ccccc1)C(=O)N[C@@H](CCC(N)=O)C(=O)N[C@@H](CC(N)=O)C(=O)N[C@@H](CCCNC(=N)N)C(=O)N[C@@H](CCCNC(=N)N)C(=O)N[C@@H](CCSC)C(=O)N[C@@H](CCCCN)C(=O)N[C@@H](Cc1c[nH]c2ccccc12)C(=O)N[C@@H](CCCCN)C(=O)N[C@@H](CCCCN)C(N)=O [5i],> 10 µM
9,CC[C@H](C)[C@H](NC(=O)[C@H](CCCCN)NC(=O)[C@@H](NC(=O)[C@H](CCC(N)=O)NC(=O)[C@@H](N)CCCNC(=N)N)[C@@H](C)CC)C(=O)N[C@@H](Cc1c[nH]c2ccccc12)C(=O)N[C@@H](Cc1ccccc1)C(=O)N[C@@H](CCC(N)=O)C(=O)N[C@@H](CC(N)=O)C(=O)N[C@@H](CCCNC(=N)N)C(=O)N[C@@H](CCCNC(=N)N)C(=O)N[C@@H](CCSC)C(=O)N[C@@H](CCCCN)C(=O)N[C@@H](Cc1c[nH]c2ccccc12)C(=O)N[C@@H](CCCCN)C(=O)N[C@@H](CCCCN)C(N)=O [Penetratin],> 10 µM
10,N=C(N)NCCC[C@H](NC(=O)[C@H](CCCNC(=N)N)NC(=O)[C@H](CCCNC(=N)N)NC(=O)[C@H](CCCNC(=N)N)NC(=O)[C@H](CCCNC(=N)N)NC(=O)[C@H](CCCNC(=N)N)NC(=O)[C@H](CCCNC(=N)N)NC(=O)[C@H](CCCNC(=N)N)NC(=O)[C@@H](N)CCCNC(=N)N)C(N)=O [R9],> 10 µM
11,N=C(N)NCCC[C@H](NC(=O)CN)C(=O)N[C@@H](CCCCN)C(=O)N[C@@H](CCCCN)C(=O)N[C@@H](CCCNC(=N)N)C(=O)N[C@@H](CCCNC(=N)N)C(=O)N[C@@H](CCC(N)=O)C(=O)N[C@@H](CCCNC(=N)N)C(=O)N[C@@H](CCCNC(=N)N)C(=O)N[C@@H](CCCNC(=N)N)C(=O)N1CCC[C@H]1C(=O)N1CCC[C@H]1C(=O)N[C@@H](CCC(N)=O)C(N)=O [TAT],> 10 µM
12,CC[C@H](C)[C@H](NC(=O)[C@H](CCCCN)NC(=O)[C@H](CCCCN)NC(=O)[C@H](C)NC(=O)[C@H](CC(C)C)NC(=O)[C@H](C)NC(=O)[C@H](C)NC(=O)[C@H](CC(C)C)NC(=O)[C@H](C)NC(=O)[C@H](CCCCN)NC(=O)[C@H](CC(C)C)NC(=O)[C@H](CC(N)=O)NC(=O)[C@@H](NC(=O)[C@H](CCCCN)NC(=O)CNC(=O)[C@H](CC(C)C)NC(=O)[C@H](CC(C)C)NC(=O)[C@H](Cc1ccc(O)cc1)NC(=O)CNC(=O)[C@H](C)NC(=O)[C@H](CO)NC(=O)[C@H](CC(N)=O)NC(=O)[C@H](CC(C)C)NC(=O)[C@@H](NC(=O)[C@H](Cc1c[nH]c2ccccc12)NC(=O)CN)[C@@H](C)O)[C@@H](C)CC)C(=O)N[C@@H](CC(C)C)C(N)=O [Transportan],3.05 µM and 3.1 µM
13,H-FFLIPKGGRKKRRQRRRPPQ-NH2 [PasTAT],> 10 µM
14,H-RQKRLIRQKRLIRQKRLI-NH2 [DPT-sh2],> 10 µM
15,H-VKKKKIKREIKI-NH2 [DPT-sh1],> 10 µM
16,VRLIVAVRIWRR-NH2 [IDR-1018],> 10 µM
